Source: PMC4747383, “Design of a peptidic inhibitor that targets the dimer interface of a prototypic galectin” (Oncotarget, 2015)
“Also recorded” adds a separate entry of the source. No end group written: not given here.

Assays:
Jurkat T cells [1] = experiment: hGal-7-induced apoptosis of Jurkat T cells, Annexin V/PI flow cytometry; assay type: cell-based; conditions: hGal-7 and peptide pre-incubated 1 h at 4°C, cells 4 h at 37°C, serum free RPMI 1640, three independent experiments
Method: Apoptosis was measured by Western blot analysis of PARP-1 cleavage. The PACAP28–38 was used as a control. β-actin was used as a loading control. B. Flow cytometric analysis of Jurkat T cells with stained Annexin V (FL1) and propidium iodide-PI (FL3) following binding of recombinant hGal-7 with or without hGal-7(129–135). Cells in the lower right quadrant are representative of annexin V-positive/PI-negative, or early apoptotic cells. Cells in the upper right quadrant indicate annexin V-positive/PI-positive, or late apoptotic cells. C. Histogram showing the percentages of annexin V-positive Jurkat T cells obtained by adding the percentages of cells found in the lower and upper right quadrants. Results are representative of three independent experiments. Error bars represent standard deviation.
(§1) Apoptosis was measured by flow cytometry using FITC-labeled Annexin V (Biolegend, San Diego, CA, USA) and propidium iodide (PI). Briefly, the corresponding dilutions of recombinant hGal-7 and hGal-7(129–135) peptides were pre-incubated for 1 h at 4°C in serum free RPMI 1640 medium. 2.5 × 10^5 Jurkat cells were then harvested in the same medium and incubated with their corresponding dilutions at 37°C for 4 h. Cells were washed once in PBS and once in binding buffer (0.01 M HEPES, 0.14 M NaCl, 2.5 mM CaCl2, pH 7.4). Cells were then incubated for 15 min with Annexin V in the dark at room temperature. A total of 400 μL of binding buffer containing 0.25 μg/mL propidium iodide was added to the cells before analysis by flow cytometry.

recombinant hGal-1 = experiment: Disruption of hGal-1 dimers, native gel electrophoresis/Western blot; assay type: biochemical, human; conditions: recombinant hGal-1, 20 mM potassium phosphate pH 7.1, films overexposed, three independent experiments
Source text: To measure the ability of the peptides to disrupt the formation of hGal-7 dimers, we used mild denaturing native gel electrophoresis, a commonly used approach to visualize monomer-dimer equilibrium (Fig. 1A and Supplementary Fig. S1). […] This specificity at disrupting hGal-7 dimer formation is provided by distinct three-dimensional arrangements between otherwise very similar galectin homologues. Indeed, while all monomeric galectins reveal identical topologies, dimer formation in hGal-7 proceeds through a “back-to-back” topology of the monomers while other galectins, including hGal-1 and hGal-2, adopt a “side-by-side” structural arrangement (Fig. 1B). This structural organization provides additional means to specifically target and disrupt galectin function.
Incubation of the recombinant B. hGal-1 and C. hGal-2 with hGal-7(129–135) was performed in the same potassium phosphate buffer. The effect of hGal-7(129–135) on the monomeric and dimeric forms of hGal-7/hGal-1/hGal-2 was assessed by Western blotting in native conditions with respective antibodies. The hGal-1/hGal-2 films were overexposed. PACAP28–38 was the control peptide used in order to ensure the specificity of hGal-7(129–135). […]
Human Gal-7 cDNA was cloned into pET-22b(+) using NdeI and HindIII restriction enzymes. […] Purified fractions were analyzed by SDS-PAGE. […]

recombinant hGal-7 = experiment: Solid phase fluorescent binding assay on hGal-7; parameters: species or system human; conditions: hGal-7 10 μg/ml coated; unlabeled peptide (1 mM) 60 min, then biotin-labeled peptide 120 min, room temperature; Streptavidin R-phycoerythrin fluorescence; three independent experiments
Source text: Results are representative of three independent experiments. Error bars represent standard deviation.

Jurkat T cells [2] = experiment: Apoptosis/toxicity of peptide alone on Jurkat T cells; assay type: cell-based; conditions: for apoptosis induced by peptide alone in Jurkat T cells: 4 h at 37°C, Annexin V/PI two-color flow cytometry, three independent experiments
Method: as §1
Supplementary Figure S4: Inability of the control peptide (PACAP) to induce apoptosis on Jurkat T cells. Jurkat T cells wee incubated 4 h at 37°C with increasing concentrations of the control peptide PACAP before two-color flow cytometric analysis. On the left histograms, cells in the lower right quadrant are representative of annexin V-positive/PI-negative, or early apoptotic cells. Cells in the upper right quadrant indicate annexin V-positive/PI-positive, or late apoptotic cells. The right histograms show the percentages of annexin V-positive Jurkat T cells obtained by adding the percentages of cells found in the lower and upper right quadrants. Results are representative of three independent experiments. Error bars represent standard deviation.
(also on this page, place not known: www.impactjournals.com/oncotarget/ Oncotarget, Materials 2015 Supplementary) […]

| Substance | hGal-7-induced apoptosis of Jurkat T cells (Annexin V/PI) (Jurkat T cells [1]) | hGal-7-induced apoptosis of Jurkat T cells (Annexin V/PI) (Jurkat T cells [1]; listed as hGal-7 (129–135)) | disruption of hGal-1 homodimers (recombinant hGal-1) | binding to immobilized hGal-7 (recombinant hGal-7) | apoptosis induced by peptide alone in Jurkat T cells (Jurkat T cells [2]) | toxicity of peptide alone on Jurkat T cells (Jurkat T cells [2]) | apoptosis induced by peptide alone in Jurkat T cells (Jurkat T cells [2]; listed as PACAP) |
| --- | --- | --- | --- | --- | --- | --- | --- |
| H-LDSVRIP-NH2 [hGal-7(129–135), peptide corresponding to hGal-7 segment between residues 129–135] | This effect on apoptosis was confirmed by flow cytomtery | Apoptotic levels of Jurkat T cells induced by hGal-7 were decreased | No such effect was observed | direct interaction; also recorded: bind hGal-7 in a concentration-dependent and specific manner | did not induce apoptosis in Jurkat T cells |  |  |
| PACAP(28–38): an inactive fragment of the human Pituitary Adenylate Cyclase-Activating Polypeptide (PACAP) (GKRYKQRVKNK-NH2; ends and bridges not checked; UniProt P18509 159-169, looked up, fragment) | a slight increase in apoptosis is observed |  |  |  | did not induce apoptosis in Jurkat T cells; also recorded: does not induce apoptosis | did not display any toxicity on Jurkat T cells alone; also recorded: minimal toxicity on the cell line | Inability |
